Reference: PubChem BioAssay AID2305 (GlaxoSmithKline (GSK), 2010)
“And” between values parts separate entries of the source, which are not always exact repeats. Identical values can stand only once.

System: P. falciparum 3D7 growth, pLDH absorbance
Assay: blood-stage malaria parasite growth potency – strain 3D7, dose response (AID 2305)

| Structure (SMILES) | IC50 |
| --- | --- |
| Cc1ncc([N+](=O)[O-])n1CCOC(=O)NC(Nc1ccc(Br)cc1)C(Cl)(Cl)Cl (stereo not given) | 960 nM |
| NC(=NCc1ccc(O)cc1)Nc1nc(-c2ccc(OCCCn3ccnc3)cc2)cs1 | 750 nM |
| Cc1sc(CNCCCNc2cc(=O)c3ccccc3[nH]2)c(C(F)(F)F)c1C | 730 nM |
| COc1ccc2nccc(NN=Cc3cccnc3)c2c1 | 500 nM |
| COc1ccc(Nc2ccnc3cc(-c4ccccn4)ccc23)cc1OC | 30 nM |
| CC1(C)N=C(N)N=C(N)N1OCCOc1ccc(Cc2ccccc2)cc1 | 40 nM |
| OC1(c2ccccc2)c2cc(Cl)ccc2OC1c1nc2c(Cl)ccc(Cl)c2o1 (stereo not given) | 300 nM |
| CCNC(=O)CCc1cccc(Br)c1 | 530 nM |
| CC1CCCCN1CCCNC(=O)c1cccc(-c2cc3cc(Cl)c(Cl)cc3[nH]2)c1 (stereo not given) | 880 nM |
| CCc1cccc(OCC2CCCN(c3ccc(C(=O)NC4CC4)cn3)C2)c1 (stereo not given) | 1440 nM |
| CCCOc1ccc(C=C(CC(=O)O)c2nc3ccccc3s2)cc1OCC | 550 nM |
| Oc1ccc(-c2ccccc2)cc1CN1CCCCCC1 | 1170 nM |
| OC(CNc1ccnc(Nc2ccccc2)n1)c1cccc(C(F)(F)F)c1 (stereo not given) | 650 nM |
| CCOC(=O)c1cnc2cc(N3CCCC3)c(Cl)cc2c1OCC | 110 nM |
| N#Cc1ccc(C2CCN(CC[C@H](N)Cc3ccc(Cl)s3)CC2)cc1 | 1260 nM |
| CC(C)CCn1c(Sc2ccc(C#N)c([N+](=O)[O-])c2)nnc1-c1ccc(N(C)C)cc1 | 790 nM |
| COc1ccc(Nc2nc(NCc3ccc(-n4ccnc4)cc3)cc(-c3ccc(OC)cc3)n2)cc1 | 830 nM |
| N#Cc1ccc(CN2CCC(Oc3ccc(NC(=O)c4ccsc4)cc3Cl)C2)cc1 (stereo not given) | 670 nM |
| NCCCNc1nc(Nc2cccc(C(N)=O)c2)c2c(=O)[nH]ccc2n1 | 590 nM |
| NC(=O)c1cccc(C(=O)Nc2cccc(-c3cccc(-c4nc5ccccc5[nH]4)c3)c2)c1 | 550 nM |
| O=C(NC1CCN(Cc2ccccc2)CC1)c1ccc(CNC2CCN(Cc3ccccc3)CC2)cc1 | 870 nM |
| CC1CCc2sc(-c3nnc(SC(C)C(=O)NC4CC4)o3)cc2C1 (stereo not given) | 1210 nM |
| O=C(CCC1CCCCC1)NCCNc1cccc2ccccc12 | 830 nM |
| Cc1ccc(Cl)c2sc(N3CCN(C(=O)c4ccc([N+](=O)[O-])o4)CC3)nc12 | 320 nM |
| COc1ccc(NC(=O)/C=C/c2ccccc2Cl)cc1OCCN1CCC(N(C)C)CC1 | 970 nM |

| Structure (SMILES) | IC50 |
| --- | --- |
| CCCNCc1ccc(-c2ccc(CN(Cc3ccc4c(c3)OCO4)C(=O)Cc3cccnc3)cc2)nc1 | 860 nM |
| Cc1ncccc1-c1cccc2c(NC(=O)Nc3ccc4nccc(N5CCN(C)CC5)c4c3)cccc12 | 630 nM |
| CC(C)(CNC(=O)/C=C/c1ccc(C(F)(F)F)cc1)CNc1cc(=O)c2ccccc2[nH]1 | 910 nM |
| CCCCCn1c(Sc2ccc(C#N)c([N+](=O)[O-])c2)nnc1-c1cccs1 | 780 nM |
| O=C(Cn1c(CCc2cccc(F)c2F)nc(=O)c2ccccc21)N(CCN1CCCCC1)Cc1ccc(-c2ccc(C(F)(F)F)cc2)cc1 | 760 nM |
| COc1ccc(OC)c(C(O)CNC(C)C)c1 (stereo not given) | 60 nM |
| O=C(c1ccc(Br)o1)N1N=C(c2cccs2)CC1c1ccc(Br)cc1 (stereo not given) | 510 nM |
| CC(C)CNCc1cccc(-c2cccc(CN(C(=O)c3cccs3)C3CCN(Cc4ccccc4)CC3)c2)c1 | 900 nM |
| Cc1cccc2[nH]c(-c3cccc(-c4ccc(CNCCCN5CCCC5=O)cc4)c3)nc12 | 960 nM |
| COc1ccc2nccc([C@@H](O)CN3CCC(NCc4nc5cc(F)ccc5o4)CC3)c2c1 | 150 nM |
| CCC[C@@H](C(=O)NCCc1cccc(OC)c1)N1C(=O)c2c(ccc(OC)c2OC)C1C(=O)Nc1c(C)cccc1C (stereo not given in full) | 810 nM |
| Cc1[nH]c(C)c(-c2ccc(-c3ccccc3Cl)nc2)c(=O)c1Br | 170 nM |
| O=C(/C=C/c1ccc(Cl)c(Cl)c1)NCCCCCN1CCC(NC(=O)Nc2cc(F)ccc2F)CC1 | 700 nM |
| Cc1cc(NC(=O)c2cccs2)ccc1OC1CCN(Cc2ccc(C#N)cc2)CC1 | 720 nM |
| O=C(Cc1cccs1)NC(CCCN1CCC(Oc2cccc(Cl)c2)CC1)c1ccc(Cl)c(Cl)c1 (stereo not given) | 250 nM |
| COc1ccc(C(=O)Cn2nc(-c3ccc(Cl)cc3)ccc2=O)c(OC)c1 | 500 nM |
| O=C(c1ccc(Cl)cc1)C1CCN(CCCOc2ccc3c(c2)CCNCC3)CC1 | 1150 nM |
| CCNS(=O)(=O)c1ccc(Oc2ccc([N+](=O)[O-])cc2)cc1 | 170 nM |
| Fc1ccc2nc(-c3ccc(-c4ccc(CN5CCC(CCN6CCCCC6)CC5)cc4)s3)[nH]c2c1 | 140 nM |
| CC[C@H](N=C(Nc1ccc(C#N)cc1O)Nc1cccc(Cl)c1Cl)c1ccccc1 | 820 nM |
| CCOC(=O)c1c(C)noc1Nc1ccc(OC)cc1 | 670 nM |
| Cc1ccc(S(=O)(=O)N(C)c2ccccc2C(=O)Nc2ccccc2Oc2ccccc2)cc1 | 920 nM |
| CC(C)(C)c1ccc2nc(-c3ccc(/C=C/C(=O)NCc4cccc(C(F)(F)F)c4)cc3)[nH]c2c1 | 990 nM |
| COc1cc(Nc2nccn3c(-c4ccsc4)cnc23)cc(OC)c1OC | 890 nM |
| O=C(Nc1ccc(Cl)cn1)c1sc2ccccc2c1O | 1040 nM |

| Structure (SMILES) | IC50 |
| --- | --- |
| CC(C)CCN1CCCN(Cc2ccc(C(=O)Nc3ccc(Cl)cc3)cc2)CC1 | 800 nM |
| Cc1cc(NCCC(=O)NCCOc2ccccc2)nc(Nc2ccccc2)n1 | 1060 nM |
| CS(=O)(=O)CCNCc1cccc(-c2cc3c(Nc4ccc(OCc5cccc(F)c5)c(Cl)c4)ncnc3s2)c1 | 200 nM |
| CCn1c(Cc2ccccc2)nnc1Sc1ccc([N+](=O)[O-])c(C#N)c1 | 1010 nM |
| CCCN(CCC)CCCNc1ccc(C(=O)Nc2ccc(OCC)cc2)cc1[N+](=O)[O-] | 990 nM |
| Cc1cc(N(C)C)nc(Nc2ccc(NC(=O)CCc3ccccc3)cc2)n1 | 850 nM |
| O=C(c1ccc(-c2ccccn2)s1)N1CCc2cc3nccc(N4CCN5CCC[C@H]5C4)c3cc21 | 760 nM |
| OCC(c1ccccc1)n1c(COc2ccc(Cl)cc2)nc2c(OCCCN3CCCCC3)cccc21 (stereo not given) | 920 nM |
| O=C(Cn1c(SCc2cccc(F)c2F)cc(=O)c2ccccc21)N(CCn1ccnc1)Cc1ccc(-c2ccc(C(F)(F)F)cc2)cc1 | 770 nM |
| O=C(Nc1cccc(F)c1)c1ccc(C(=O)NC2CCN(CC3CCCCC3)C2)cc1 (stereo not given) | 930 nM |
| CSC1=NC2(CC(c3cccc(C)c3)c3cc(Cl)c(O)cc3O2)CC(C)(C)N1 (stereo not given) | 880 nM |
| O=C(O)C[C@H](NC(=O)c1cc(-c2ccc3c(c2)OCO3)no1)C(=O)O (tested in a mixture with another compound) | 190 nM |
| O=C(c1cccc(Cl)c1)N1CCN(c2ccc([N+](=O)[O-])c(NC3CC3)c2)CC1 | 870 nM |
| Cc1cc(N(C)CCCN(C)C)nc(Nc2ccc(Cl)cc2)n1 | 1020 nM |
| CCCc1ccc(NC(=O)c2ccc(CN3CCCN(Cc4cccc(O)c4)CC3)cc2)cc1 | 400 nM |
| CCNC(=O)Nc1ccc(-c2cnc(N)c(-c3nc4ccc(OC)cc4[nH]3)c2)cc1 | 500 nM |
| O=c1cc(NCCCNC(CNCCc2ccccc2)c2cc(Br)cc(Br)c2)[nH]c2ccccc12 (stereo not given) | 860 nM |
| CCN(CC)CCCC(C)Nc1c2cc(OC)ccc2nc2cc(Cl)c([N+](=O)[O-])cc12 (stereo not given) | 790 nM |
| Cc1cc2cc(CNCCc3ccccc3Br)ccc2nc1N | 240 nM |
| O=C(/C=C/c1ccc(Cl)c(Cl)c1)NCCCCCN1CC[C@H](c2c[nH]c3ccccc23)[C@@H](O)C1 | 800 nM |
| CC(C)CCCC(C)(C)NC[C@@H](O)[C@H](Cc1ccccc1)NC(=O)c1cc(NC(C)C)cc(N2CCCCS2(=O)=O)c1F | 220 nM |
| CCc1cc2c(cc1CC)CC(NC[C@@H](O)c1ccc(O)c3[nH]c(=O)ccc13)C2 | 1120 nM |
| CC(=O)Nc1ccc(OCCCN(Cc2ccccc2C(F)(F)F)c2ccc(C(F)(F)F)c(C#N)c2)c(Cl)c1 | 1450 nM |
| Nc1nc(-c2ccc3c(Nc4ccc(F)c(Cl)c4)ccnc3c2)cs1 | 870 nM |
| COc1ccc(NC(=O)[C@H](Cc2ccccc2)Nc2nc(NCCN3CCCC3)ncc2C)cc1 | 990 nM |

| Structure (SMILES) | IC50 |
| --- | --- |
| Clc1ccc(OCCC2CCN(CCCCCCN3CCCCC3)CC2)cc1Cl | 1140 nM |
| CC(C)OCCCNC(=O)c1nc(-c2cccc(C(F)(F)F)c2)sc1C(C)C | 1160 nM |
| Cc1cc(F)ccc1Oc1nc(Nc2ccc(N3CCOCC3)c(F)c2)nc2c1S(=O)(=O)CCC2 | 460 nM |
| N/C(=N\c1cccc(Cc2ccc([N+](=O)[O-])cc2)n1)Nc1ccccc1 | 950 nM |
| FC(F)(F)c1ccc(Nc2nnnc3ccccc23)cc1 | 690 nM |
| O=C(C=Cc1ccc(Cl)c(Cl)c1)NCCCCCN1CCC(CCNC(=O)c2ccc3c(c2)OCO3)CC1 | 690 nM |
| COc1ccc(O)c(CN2CCN(c3cc(C)ccc3C)CC2)c1 | 1010 nM |
| Clc1ccc(C=NNc2ccnc3ccccc23)cc1 | 720 nM |
| Nc1ccc2c(N)c3ccccc3nc2c1 | 810 nM |
| COC(=O)/C=C/c1ccc(CC(C)NCC(O)c2cccc(Cl)c2)cc1 (stereo not given) | 750 nM |
| O=C(CCCCCNC(=O)c1ccc(O)c(-c2ccc(Cl)c(Cl)c2)c1)NC1CCCCCC1 | 950 nM |
| COc1ccc(O)cc1/C=N/Nc1ccnc2cc(Cl)ccc12 | 540 nM |
| CC1=C(C(=O)Nc2ccccc2)C(c2ccc([N+](=O)[O-])cc2)n2ncc(C(=O)Nc3ccccc3)c2N1 (stereo not given) | 1240 nM |
| CCN1CC[C@]2(c3cccc(OC)c3)Cc3nc4ccccc4c(-c4ccccc4)c3C[C@H]2C1 | 350 nM |
| CC(=O)N(Cc1ccccc1-c1ccc(CNCCc2ccccc2)cc1)C1CCN(Cc2ccccc2)CC1 | 480 nM |
| N#Cc1ccc(-c2ccc(C(=O)NC3CCN(CCN4CCC(c5cn(CCO)c6ccccc56)CC4)CC3)cc2)cc1 | 760 nM |
| CC(C)Cc1cn(-c2nc(-c3nc4ccccc4[nH]3)cs2)c2ccncc12 | 90 nM |
| Cc1c(C)c2c(c(C)c1O)CC[C@](C)(C(=O)NC1CCC(CN3CCC(c4c[nH]c5ccccc45)CC3)CC1)O2 (stereo not given in full) | 880 nM and 1120 nM |
| Cc1cc(C)c(CC(C)NCC(O)c2cccc(C(F)(F)F)c2)c(C)c1 (stereo not given) | 570 nM |
| O=C(N[C@@H](Cc1ccccc1)C(=O)O)c1cc(-c2ccc(F)cc2)no1 (tested in a mixture with another compound) | 800 nM |
| N#CN1CC[C@H](CS(=O)(=O)c2cccc(Br)c2)C1 | 870 nM |
| NC(N)=Nc1nc(-c2cccc(NC(=O)NCc3ccc(OC(F)(F)F)cc3)c2)cs1 | 700 nM |
| Cc1cccc2[nH]c(-c3ccc(-c4ccc(CN5CCN(CCN6CCOCC6)CC5)cc4)cc3)nc12 | 230 nM |
| CC[C@H](C)CNC(=O)c1cccc(-c2cccc(CNCC3CNCCCO3)c2)n1 (stereo not given in full) | 1080 nM |
| NC1CCCN(Cc2cccc(-c3ccc(-c4nc5ccccc5[nH]4)cc3)c2)C1 (stereo not given) | 720 nM |
